Literature values as cited in article PMC11881343, “Safety of ilunocitinib tablets (Zenrelia™) after once daily oral administration in dogs” (BMC Veterinary Research, 2025).

How the values were obtained:
[1] = test system: human patients with rheumatoid arthritis; parameters: method as in PMID 31362993; conditions: human medicine; cited from earlier work
[2] = test system: JAK3; parameters: method as in PMID 32413585; conditions: cited from earlier work
[3] = test system: peripheral blood leukocytes; conditions: rheumatoid arthritis patients in phase III clinical trials; cited from earlier work
[4] = test system: dogs; conditions: cited from earlier work

Compound | effect on hemoglobin [1] | potency against JAK3 [2] | changes in lymphocytes subsets populations [3] | Weight gain in dogs ([4]; dogs) | Papillomas in dogs ([4]; resorbed spontaneously)
CCS(=O)(=O)N1CC(CC#N)(n2cc(-c3ncnc4[nH]ccc34)cn2)C1 [baricitinib] | initial decrease in hemoglobin within the normal range followed by a slight increase | significantly lower potency against JAK3 | minimal and reversible changes | – | –
CNS(=O)(=O)C[C@H]1CC[C@H](N(C)c2ncnc3[nH]ccc23)CC1 [oclacitinib] | – | – | – | Weight gain has been reported | Papillomas were also observed
CC[C@@H]1CN(C(=O)NCC(F)(F)F)C[C@@H]1c1cnc2cnc3[nH]ccc3n12 [upadacitinib] | limited impact on hemoglobin | – | – | – | –
